Measured values from patent publication US7592025B2, “Vehicles for oral care with magnolia bark extract” (GIC Innovations Company, priority 2005, dated 2009).

Columns and labels:
[1] = system: bacteria from freshly-collected stimulated whole saliva (plaque biofilm); test: Mixed culture saliva biofilm on saliva-coated hydroxyapatite discs, timed exposure to actives; assay type: cell-based; conditions: for pH (of medium): second series (Table 7)
Protocol: Although useful to show the comparative effect of Magnolia Bark Extract on biofilm formation and MIC growth, the foregoing test procedure may not effectively mimic the in vivo exposure of an oral care product to a developing plaque biofilm. In an in vivo situation, the active could be exposed to the plaque for a defined period of time at a set frequency (for example, for 5 minutes, three times a day). Therefore, a series of comparative experiments were conducted to mimic the in vivo use of potential active ingredients. To perform the tests the saliva compositions listed below in Tables 2 and 3 were prepared.
A mixed culture system that utilizes the bacteria from freshly-collected stimulated whole saliva was used. Saliva cell pellets were used to inoculate saliva-coated hydroxyapatite (S-HA) discs. The discs were placed in 24-well cell culture plates and incubated for up to 3 days. Biofilms were exposed to actives on days 2 and 3 (starting at 18 hours), and quantified on day 4. The number of bacteria was determined by spectrophotometric absorbance or optical density (OD) at 600 nm. The five phases of the experiment were: pellicle formation; bacterial attachment; biofilm growth; exposure to actives; and bacterial enumeration.
To form the pellicles, HA Discs were ultrasonically washed in deionized water and air-dried, then autoclaved. The discs were placed in a 24-well plate with 1 ml 50% sterile saliva (1 part sterile whole saliva: 1 part saliva buffer, filter sterilize after preparation) for 2 hours on slow agitation at room temperature. […]
After overnight incubation (day 2), discs were exposed to controls and actives. […] On day 4 the discs were removed from the medium, the medium pH was measured to obtain an indication of metabolic activity, and the discs were placed into tubes with 2.5 ml PBS, vortexed for 20 sec, and then placed into the ultrasonic bath for another 20 sec. The suspension was transferred into cuvettes and the bacterial cell density determined by OD measurements at 600 nm. […]

S. mutans = test: MIC and fractional inhibitory index (FIC) of combinations by two-fold serial dilution; assay type: cell-based, Streptococcus mutans; conditions: 24 hours at 37° C., ratio as in label
Protocol: (§1) To evaluate the germ-kill efficacy and synergist effect when two or more germ-kill actives are combined, testing was performed to determine the ratio of MBE to surface active agent. The germ-kill active and/or surface active agent were dissolved in ethanol or sterile water to give an initial concentration 0.1% to 1%. The solution was diluted with a nutrient broth to give an initial concentration of 0.05% to 0.5%, which was then serially diluted two-fold so that each subsequent dilution contained 50% of the compound concentration of the previous dilution while maintaining a constant level of nutrients for each dilution. These dilutions were inoculated with representative oral microorganisms, or incubated saliva, and incubated for 24 hours at 37° C. For each surface active agent, the lowest dilution that was not turbid was registered as the MIC. The MBC was determined by transferring 10 microliter of liquid from non-turbid tubes to fresh growth media and incubated for 48 hours.
(1) where an FIC value of less than 1.0 is synergistic, an FIC between 1.0 and 2.0 is additive, and an FIC greater than 2.0 is antagonistic.

incubated saliva = test: MIC of surface active agents and emulsifiers by two-fold serial dilution in nutrient broth; assay type: cell-based; conditions: for MIC (ppm): incubated saliva, 24 hours at 37° C.; for germ-kill efficacy (in words): assessment of Table 9 results
Protocol: as §1

Row | Compound | MIC (ppm) (incubated saliva) | germ-kill efficacy (in words) (incubated saliva) | further results
1 | [H]/N=C(\N/C(=N/[H])NCCCCCCNC(=N)NC(=N)Nc1ccc(Cl)cc1)Nc1ccc(Cl)cc1 [CHX, Chlorhexidine] | – | – | pH (of medium, indication of metabolic activity) ([1]; CHX 0.12%, exposure one minute two times a day, day 4): 8.8; pH (of medium) ([1]; CHX 0.1% (1000 ppm)): 8.8
2 | N=C(NCCCCCCNC(=N)NC(=N)Nc1ccc(Cl)cc1)NC(=N)Nc1ccc(Cl)cc1.O=C(O)[C@H](O)[C@@H](O)[C@H](O)[C@H](O)CO.O=C(O)[C@H](O)[C@@H](O)[C@H](O)[C@H](O)CO [Chlorhexidine gluconate, reference compound] | 2 ppm | – | MIC/ppm (S. mutans): 2 ppm
3 | CCCCCCCCCCCCOS(=O)(=O)[O-].[Na+] [SLS, Sodium Lauryl Sulfate] | – | good | pH (of medium) ([1]; SLS 1000 ppm): 5.7
4 | CCCCCCCCCCCC(=O)OCCOCCOCCOCCOCCOCCOCCOCCOCCOCCOCCOCCOCCOCCOCCOCCOCCOCCOCCOCCOCC(OCCOCCOCCOCCOCCOCCOCCOCCOCCOCCOCCOCCOCCOCCOCCOCCOCCOCCOCCOCCO)C1OCC(OCCOCCOCCOCCOCCOCCOCCOCCOCCOCCOCCOCCOCCOCCOCCOCCOCCOCCOCCOCCO)C1OCCOCCOCCOCCOCCOCCOCCOCCOCCOCCOCCOCCOCCOCCOCCOCCOCCOCCOCCOCCO (stereo not shown) [Tween 20, Polysorbate 20] | – | weak or non | –
5 | Cocamidopropyl Betaine | – | good | –
6 | Sodium Brasslate | 500 ppm | moderate | –
7 | Sodium Stearoyl Lactylate | >3000 ppm | weak or non | –
8 | Sucrose Distearate | >500 ppm | weak or non | –
9 | Sucrose Stearate | >500 ppm | weak or non | –
